Measurements as given in US20200237871A1, “METHODS FOR MITIGATING LIVER INJURY AND PROMOTING LIVER HYPERTROPHY, REGENERATION AND CELL ENGRAFTMENT IN CONJUNCTION WITH RADIATION AND/OR RADIOMIMETIC TREATMENTS” (Janssen Pharmaceutica NV, priority 2019, published 2020).
Entries after “also recorded” stand apart in the source; their conditions may differ.

Key:
[1] = test system: C57BL6 male mice; experiment: Volume of untreated (non-irradiated) caudate lobe after partial hepatic irradiation (Example 1); assay type: in vivo, mouse; details: 50 Gy to median lobe; 300 μg/kg sc 10 minutes after irradiation; one month after HIR; n=4 per group; p-value <0.00932
Protocol: 8-12-week-old C57BL6 male mice were housed in the Institute for Animal Studies at Albert Einstein College of Medicine and fed regular chow. Animals were weighed in the beginning of the experiment and before tissue collection. All experiments were performed to according to protocols approved by Institutional Animal Care and Use Committee at Albert Einstein College of Medicine.
Image-guided external beam irradiation was performed using a small animal radiation research platform (SARRP, Xstrahl Inc., Suwanee, Ga.). Mice were given gastrografin contrast through gavage to improve visualization of the gastrointestinal (GI) tract. After approximately 2 minutes, mice were positioned on a tubular couch and anesthetized with ˜2% Isofluorane (Isothesia, USP) in 2 L/min pure oxygen. A cone-beam computed tomography (CBCT) scan was acquired and a treatment plan irradiating the median lobe and right lobe was generated using the MuriPlan software. To minimize toxicity, irradiation was performed using 2 parallel opposed fields. […]
With fixed physiologic organ size, non-irradiated liver undergoes hypertrophy in effort to compensate for the irradiated atrophic lobe. The volume of the caudate lobe was measured as a non-irradiated lobe in this experiment.

[2] = test system: mice with normal or cirrhotic (CCl4) livers; experiment: SPECT-CT residual perfusion defect volume after hepatic irradiation (Example 2); assay type: in vivo, mouse
Protocol: 8-12-week-old male and female Di-peptyl peptidase IV (DPPIV) −/− knockout mice and 8-12-week-old male and female C57Bl6 mice were used in this study. Animals were weighed in the beginning of the experiment and before tissue collection. All animals were housed in the Institute for Animal Studies at Albert Einstein College of medicine and fed regular rodent chow. All experiments were performed to according to protocols approved by Institutional Animal Care and Use Committee at Albert Einstein College of Medicine. Animals were made cirrhotic using CCl4 administration (intraperitoneal [IP] injections twice a week for at least 11 weeks).
Image-guided external beam irradiation was performed using a small animal radiation research platform (SARRP, Xstrahl Inc., Suwanee, Ga.). Mice were given gastrografin contrast through gavage to improve visualization of the gastrointestinal (GI) tract. After approximately 2 minutes, mice were positioned on a tubular couch and anesthetized with ˜2% Isofluorane (Isothesia, USP) in 2 L/min pure oxygen. A cone-beam computed tomography (CBCT) scan was acquired and a treatment plan irradiating the median lobe and right lobe was generated using the MuriPlan software. To minimize toxicity, in contrast to Example 1 where two parallel opposed fields were used, irradiation was performed using 2 arcs per liver target with equal dosing weights (likely resulting in more collateral lower dose radiation exposure compared to Example 1). Within the targeted lobes, the position of the isocenter was chosen to minimize irradiation of the GI tract, spine, and heart (the maximum dose to these organs was kept below 10 Gy). Targets were irradiated with 50 Gy X-rays at 220 kVp energy and 13 mA tube current (dose rate of 2.4-2.5 Gy/min) using a 1 mm copper filter for beam hardening. (Brodin et al., The Radiation Safety Journal, 2015, 109 Supp 3, S190).
TPOm was diluted in sterile PBS to a 10 mg/ml stock. The stock was stored at −20° C. and allowed to come to room temperature prior to administration. TPOm was administered as a single dose (300 μg/kg) via subcutaneous injection 10 minutes after the transplant procedure.
LSEC transplantation is a novel technique that requires a strong growth stimulus for effective liver repopulation (Guha et al., Hepatology, 2002, 36:354-62; Laconi et al., Am. J. Pathol., 1998, 153:319-29). Following isolation of LSECs, 500×10^5 LSECs are transplanted via intrasplenic injection into healthy adult mice anesthetized with Isoflurane (Isothesia, USP) 24 hrs post HIR. […]
SPECT with a radiotracer to assess the progression of RILD in-vivo has been developed and utilized in this work. […] The CT was set on medium resolution and was measured by a dosimeter and read by a third-party company, at an exposure of 5 mRem/hr for each CT scan/animal. […]

“methoxypolyethyleneglycol20000-propionyl-L-Isoleucyl-L-Glutamyl-Glycyl-L-Prolyl-L-Threonyl-L-Leucyl-L-Arginyl-L-Glutaminyl-L-2-Naphthylalanyl-L-Leucyl-L-Alanyl-L-Alanyl-L-Arginyl-Sarcosyl-Ne-(methoxypolyethyleneglycol20000-propionyl-L-Isoleucyl-L-Glutamyl-Glycyl-L-Prolyl-L-Threonyl-L-Leucyl-L-Arginyl-L-Glutaminyl-L-2-Naphthyl alanyl-L-Leucyl-L-Alanyl-L-Alanyl-L-Arginyl-Sarcosyl-)-Lysinamide [RWJ-800088]” was tested, and the “non-irradiated caudate lobe size, HIR+TPOm vs. HIR+saline” value [1] was “significant increase”, the “perfusion defect of irradiated liver tissue (SPECT-CT), in words” value ([2]; LSEC transplant followed by TPOm injection post irradiation) was “perfusion recovery; also recorded: significant mitigation of defect formation” and the “residual defect 2 months post radiation, cirrhotic liver” value ([2]; cirrhotic livers, RWJ-800088 and LSEC transplantation 24-hours post irradiation, listed as TPOm) was “significantly reduced”. For the same substance, the “mean residual defect volume in the irradiated region” value ([2]; normal livers, RWJ-800088 2 or 24 hours prior to irradiation, without LSEC transplant, 2 months post HIR, listed as TPOm) was “significant reduction in defect volume” and the “residual defect volume in the irradiated area” value ([2]; normal livers, RWJ-800088 and LSEC transplantation 24 hours after irradiation, 2 months post HIR, p=0.03, HIR only 71.4%) was 18.2%.
